Test results taken from patent US20150250770A1, “LKB1 AS PREDICTIVE MARKER OF EVEROLIMUS EFFICACY IN BREAST CANCER” (CENTRE LEON BERARD, priority 2012, published 2015).
Like-named read-outs stand apart in the source and are kept apart here.

What was measured:
[1] = TAMRAD study; cited from earlier work
[2] = tested on: metastatic breast cancer ER+/HER2− progressed after aromatase inhibitor; conditions: 724 patients randomized 2:1; cited from earlier work
[3] = tested on: hormone receptor-positive and human epidermal growth factor receptor type 2 (HER2)-negative mBC; conditions: cited from earlier work
[4] = tested on: breast tumours with low or high LKB1 expression; experiment: TAMRAD translational study: time to progression by LKB1 H score (IHC) in primary tumour; format: in vivo, human
Experimental: Paraffin embedded breast tumors were serially sectioned at a thickness of 4 μm. After deparaffinization and rehydration, tissue sections were boiled in low pH buffer (Dako) using a PT Link at 97° C. for 30 minutes. For blocking endogenous peroxidases, the slides were incubated in 5% hydrogen peroxide in sterile water. The slides were then incubated at room temperature for one hour with the anti-LKB1 polyclonal rabbit antibody (Ref: Ab58786, Abcam, Cambridge, UK) diluted at 1/50. After rinsing in Phosphate Buffer Saline, the slides were incubated with a biotinylated secondary antibody bound to a streptavidin peroxidase conjugate (Envision Flex kit Ref: K800021-2, Dako, Trappes, France). […] Sections were counterstained with hematoxylin.
All slides were read by a single senior pathologist who was blinded to the clinical data. For comparison of the staining among tissues, samples were scored semi-quantitatively using a complete histological score (H score) that considered both the staining intensity and the percentage of cells stained at a specific range of intensities. For each case, the complete H score was defined as the products of the percentage of cells stained at a given staining intensity (0-100) and the staining intensity score (0, none; 1, weak, 2, moderate, and 3, intense). […]

## CO[C@H]1C[C@@H]2CC[C@@H](C)[C@@](O)(O2)C(=O)C(=O)N2CCCC[C@H]2C(=O)O[C@H]([C@H](C)C[C@@H]2CC[C@@H](OCCO)[C@H](OC)C2)CC(=O)[C@H](C)/C=C(\C)[C@@H](O)[C@@H](OC)C(=O)[C@H](C)C[C@H](C)/C=C/C=C/C=C/1C [everolimus, 42-O-(2-hydroxyethyl)rapamycin]
[1]
  patients who had to decrease the dose of everolimus: 20%
  patients who had to stop everolimus due to toxicities: 20%

## exemestane [exemestane and placebo]
[2]
  progression free survival (PFS), local investigator assessment: 2.8 months

## CC/C(=C(\c1ccccc1)c1ccc(OCCN(C)C)cc1)c1ccccc1 [tamoxifen]
[3]; ITT population, exploratory P=0.002
  median TTP: 4.5 months
[3]; ITT population, exploratory P=0.045
  clinical benefit rate (CBR) at 6 months: 42%
[3]; TAMRAD trial, 111 patients
  time-to-progression (TTP): 4.5 months
[3]; last update of OS in September 2011
  median OS: 32.9 months
[3]; per-protocol population
  clinical benefit rate (CBR) at 6 months: 41%
[4]; patients with H Score above 90, p=0.35
  time to progression: 5.5 months
[4]; patients with LKB1 H Score below or at 90, P=0.03
  time to progression: 4.5 months
